Structures are written as SMILES. pKd: −log10 of the molar value.

Broadly, the pKd is −log10 of the Kd, conventionally taken in molar units.

The target in test [1] is T1, Stp1 (Staphylococcus aureus, UniProt A0A0H2XF73).
T1 sequence (A0A0H2XF73 1-247): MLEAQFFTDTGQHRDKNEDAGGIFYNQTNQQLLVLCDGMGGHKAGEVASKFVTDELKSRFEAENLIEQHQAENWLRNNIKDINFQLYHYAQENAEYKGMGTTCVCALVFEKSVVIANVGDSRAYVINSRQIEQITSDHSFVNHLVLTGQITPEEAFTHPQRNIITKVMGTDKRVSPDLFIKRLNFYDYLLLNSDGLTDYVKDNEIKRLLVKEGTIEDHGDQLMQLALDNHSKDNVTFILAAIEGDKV
Briefly: fluorescence quenching. Type of test: binding.

Test [2] deals with Stp1 (Staphylococcus aureus, UniProt A0A0H2XF73, F179A). The test can be described thus: biochemical.
The target of test [3] is T1, Stp1. The test can be described thus: pNPP phosphatase assay, absorbance […] nm. Type of test: biochemical. Conditions: read-out: % inhibition at 32 μg/mL.
In test [4] the target is Stp1 (Staphylococcus aureus, UniProt A0A0H2XF73, Y199A). Briefly: biochemical.
Test [5] addresses Stp1 (Staphylococcus aureus, UniProt A0A0H2XF73, I164A). Briefly: biochemical.
In test [6] the target is Stp1 (Staphylococcus aureus, UniProt A0A0H2XF73, P152A). The test can be described thus: biochemical.

With `O=C(O[C@@H]1O[C@@H]2COC(=O)c3cc(O)c(O)c(O)c3-c3c(cc(O)c(O)c3O)C(=O)O[C@H]([C@H]1O)[C@@H]2O)c1cc(O)c(O)c(O)c1` [corilagin], the negative logarithm of the Kd (pKd) on Stp1 [1] was 5.71; on Stp1 [2], 5.59; at Stp1 [4], 5.54; at Stp1 [5], 5.05; at Stp1 [6], 5.14. Moreover, the inhibition at 32 µg/mL at Stp1 [3] is > 90%.
